What all share (test): Glasshouse herbicide test, pre- and post-emergence
Holding throughout (format): in vivo

Test [1] concerns Echinochloa crus-galli (ECHCG). The conditions noted are these: 250 g/h, evaluated after 13 days, five-point scale; for percentage damage caused to the plant, ECHCG POST: post-emergence; for percentage damage caused to the plant, ECHCG PRE: pre-emergence. The essentials:
(§1)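 Spraying at 250 g/h took place either pre-emergence (one day after sowing) or post-emergence (after eight days' cultivation). Percentage damage was evaluated 13 days afterwards and binned into five classes, 1=0-19% up to 5=80-100%.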

Another test deals with Setaria faberi (SETFA). The settings on record: 250 g/h, evaluated after 13 days, five-point scale; for percentage damage caused to the plant, SETFA POST: post-emergence; for percentage damage caused to the plant, SETFA PRE: pre-emergence. The procedure, abridged: as §1
A further test deals with Lolium perenne (LOLPE). The settings on record: 250 g/h, evaluated after 13 days, five-point scale; for percentage damage caused to the plant, LOLPE POST: post-emergence; for percentage damage caused to the plant, LOLPE PRE: pre-emergence. The essentials:
as §1

The subject of a further test is Avena fatua (AVEFA). The conditions noted are these: 250 g/h, evaluated after 13 days, five-point scale; for percentage damage caused to the plant, AVEFA POST: post-emergence; for percentage damage caused to the plant, AVEFA PRE: pre-emergence. The essentials:
as §1

The test system of test [2] is Alopecurus myosuroides (ALOMY). The settings on record: 250 g/h, evaluated after 13 days, five-point scale; for percentage damage caused to the plant, ALOMY POST: post-emergence; for percentage damage caused to the plant, ALOMY PRE: pre-emergence. The essentials:
as §1

In the case of `CC#Cc1cc(C)c(C2C(=O)CC3(CCC(C(=O)NC(C)(C)C)CC3)CC2=O)c(C)c1` (centres unmarked) [Compound 1.013], in test [1], the “percentage damage caused to the plant, ECHCG POST” value is 5 (5=80-100%) and the “percentage damage caused to the plant, ECHCG PRE” value is given as 5 (5=80-100%). In the test with Setaria faberi (SETFA), the “percentage damage caused to the plant, SETFA POST” value is 5 (5=80-100%) and the “percentage damage caused to the plant, SETFA PRE” value was 5 (5=80-100%). In addition, in the test on Lolium perenne (LOLPE), the “percentage damage caused to the plant, LOLPE POST” value is listed as 5 (5=80-100%) and the “percentage damage caused to the plant, LOLPE PRE” value is recorded as 5 (5=80-100%). In the test on Avena fatua (AVEFA), the “percentage damage caused to the plant, AVEFA POST” value is reported as 4 (4=60-79%) and the “percentage damage caused to the plant, AVEFA PRE” value is 1 (1=0-19%). For the same molecule, in test [2], the “percentage damage caused to the plant, ALOMY POST” value was 5 (5=80-100%) and the “percentage damage caused to the plant, ALOMY PRE” value is 3 (3=40-59%).
Consider `CC#Cc1cc(C)c(C2C(=O)CC3(CCC(C(=O)Nc4ccccn4)CC3)CC2=O)c(C)c1` (centres unmarked) [Compound 1.004], for which, in test [1], the “percentage damage caused to the plant, ECHCG POST” value was 4 (4=60-79%) and the “percentage damage caused to the plant, ECHCG PRE” value was 5 (5=80-100%). Further, in the test on Setaria faberi (SETFA), the “percentage damage caused to the plant, SETFA POST” value is 4 (4=60-79%) and the “percentage damage caused to the plant, SETFA PRE” value is given as 5 (5=80-100%). Moreover, in the test on Lolium perenne (LOLPE), the “percentage damage caused to the plant, LOLPE POST” value was 4 (4=60-79%) and the “percentage damage caused to the plant, LOLPE PRE” value was 4 (4=60-79%). For the same molecule, in the test with Avena fatua (AVEFA), the “percentage damage caused to the plant, AVEFA POST” value is reported as 5 (5=80-100%) and the “percentage damage caused to the plant, AVEFA PRE” value was 4 (4=60-79%). Also, in test [2], the “percentage damage caused to the plant, ALOMY POST” value is 4 (4=60-79%) and the “percentage damage caused to the plant, ALOMY PRE” value is listed as 3 (3=40-59%).
As for `CC#Cc1cc(C)c(C2C(=O)CC3(CCC(C(=O)NC(C)(C#N)CC)CC3)CC2=O)c(C)c1` (centres unmarked) [Compound 1.014], in test [1], the “percentage damage caused to the plant, ECHCG POST” value is 5 (5=80-100%) and the “percentage damage caused to the plant, ECHCG PRE” value is 5 (5=80-100%). For the same molecule, in the test on Setaria faberi (SETFA), the “percentage damage caused to the plant, SETFA POST” value is on record as 5 (5=80-100%) and the “percentage damage caused to the plant, SETFA PRE” value was 5 (5=80-100%). Moreover, in the test on Lolium perenne (LOLPE), the “percentage damage caused to the plant, LOLPE POST” value is 5 (5=80-100%) and the “percentage damage caused to the plant, LOLPE PRE” value is on record as 5 (5=80-100%). In the test on Avena fatua (AVEFA), the “percentage damage caused to the plant, AVEFA POST” value is on record as 5 (5=80-100%) and the “percentage damage caused to the plant, AVEFA PRE” value is reported as 2 (2=20-39%). Besides, in test [2], the “percentage damage caused to the plant, ALOMY POST” value is 5 (5=80-100%) and the “percentage damage caused to the plant, ALOMY PRE” value is given as 3 (3=40-59%).
On to `CC#Cc1cc(C)c(C2C(=O)CC3(CCC(NC(C)=O)CC3)CC2=O)c(OC)c1` (centres unmarked) [Compound 2.003], for which, in test [1], the “percentage damage caused to the plant, ECHCG POST” value is given as 5 (5=80-100%) and the “percentage damage caused to the plant, ECHCG PRE” value is listed as 5 (5=80-100%). Moreover, in the test on Setaria faberi (SETFA), the “percentage damage caused to the plant, SETFA POST” value is on record as 5 (5=80-100%) and the “percentage damage caused to the plant, SETFA PRE” value is reported as 5 (5=80-100%). Moreover, in the test with Lolium perenne (LOLPE), the “percentage damage caused to the plant, LOLPE POST” value was 5 (5=80-100%) and the “percentage damage caused to the plant, LOLPE PRE” value was 5 (5=80-100%). In the test with Avena fatua (AVEFA), the “percentage damage caused to the plant, AVEFA POST” value is given as 5 (5=80-100%) and the “percentage damage caused to the plant, AVEFA PRE” value is given as 5 (5=80-100%). Also, in test [2], the “percentage damage caused to the plant, ALOMY POST” value is recorded as 5 (5=80-100%) and the “percentage damage caused to the plant, ALOMY PRE” value is recorded as 5 (5=80-100%).
Regarding `CC#Cc1cc(C)c(C2C(=O)CC3(CCC(C(=O)N(C)C)CC3)CC2=O)c(C)c1` (centres unmarked) [Compound 1.001], in test [1], the “percentage damage caused to the plant, ECHCG POST” value is 5 (5=80-100%) and the “percentage damage caused to the plant, ECHCG PRE” value is reported as 5 (5=80-100%). Also, in the test on Setaria faberi (SETFA), the “percentage damage caused to the plant, SETFA POST” value is recorded as 5 (5=80-100%) and the “percentage damage caused to the plant, SETFA PRE” value was 5 (5=80-100%). Moreover, in the test on Lolium perenne (LOLPE), the “percentage damage caused to the plant, LOLPE POST” value is 5 (5=80-100%) and the “percentage damage caused to the plant, LOLPE PRE” value is given as 5 (5=80-100%). Also, in the test with Avena fatua (AVEFA), the “percentage damage caused to the plant, AVEFA POST” value was 5 (5=80-100%) and the “percentage damage caused to the plant, AVEFA PRE” value is listed as 5 (5=80-100%). Also, in test [2], the “percentage damage caused to the plant, ALOMY POST” value is listed as 5 (5=80-100%) and the “percentage damage caused to the plant, ALOMY PRE” value was 5 (5=80-100%).
Take `CC#Cc1cc(C)c(C2C(=O)CC3(CCC(NC(=O)NC(C)(C)C)CC3)CC2=O)c(C)c1` (centres unmarked) [Compound 2.021]: in test [1], the “percentage damage caused to the plant, ECHCG POST” value was 5 (5=80-100%) and the “percentage damage caused to the plant, ECHCG PRE” value is listed as 5 (5=80-100%). Also, in the test on Setaria faberi (SETFA), the “percentage damage caused to the plant, SETFA POST” value is reported as 5 (5=80-100%) and the “percentage damage caused to the plant, SETFA PRE” value is listed as 5 (5=80-100%). Besides, in the test on Lolium perenne (LOLPE), the “percentage damage caused to the plant, LOLPE POST” value is 5 (5=80-100%) and the “percentage damage caused to the plant, LOLPE PRE” value is on record as 5 (5=80-100%). Also, in the test on Avena fatua (AVEFA), the “percentage damage caused to the plant, AVEFA POST” value is 5 (5=80-100%) and the “percentage damage caused to the plant, AVEFA PRE” value is reported as 4 (4=60-79%). For the same molecule, in test [2], the “percentage damage caused to the plant, ALOMY POST” value is on record as 5 (5=80-100%) and the “percentage damage caused to the plant, ALOMY PRE” value is 5 (5=80-100%).
Take `CC#Cc1cc(C)c(C2C(=O)CC3(CC2=O)CC(NC(C)=O)C3)c(C)c1` (centres unmarked) [Compound 2.025]: in test [1], the “percentage damage caused to the plant, ECHCG POST” value is given as 5 (5=80-100%) and the “percentage damage caused to the plant, ECHCG PRE” value is 5 (5=80-100%). In the test on Setaria faberi (SETFA), the “percentage damage caused to the plant, SETFA POST” value was 5 (5=80-100%) and the “percentage damage caused to the plant, SETFA PRE” value is given as 5 (5=80-100%). Also, in the test on Lolium perenne (LOLPE), the “percentage damage caused to the plant, LOLPE POST” value was 5 (5=80-100%) and the “percentage damage caused to the plant, LOLPE PRE” value was 5 (5=80-100%). In the test on Avena fatua (AVEFA), the “percentage damage caused to the plant, AVEFA POST” value is on record as 5 (5=80-100%) and the “percentage damage caused to the plant, AVEFA PRE” value is given as 5 (5=80-100%). Moreover, in test [2], the “percentage damage caused to the plant, ALOMY POST” value is recorded as 5 (5=80-100%) and the “percentage damage caused to the plant, ALOMY PRE” value was 5 (5=80-100%).
`CC#Cc1cc(C)c(C2C(=O)CC3(CCC(C(=O)NOC)CC3)CC2=O)c(C)c1` (centres unmarked) [Compound 1.010]: in test [1], the “percentage damage caused to the plant, ECHCG POST” value was 5 (5=80-100%) and the “percentage damage caused to the plant, ECHCG PRE” value is recorded as 5 (5=80-100%). Moreover, in the test with Setaria faberi (SETFA), the “percentage damage caused to the plant, SETFA POST” value is 5 (5=80-100%) and the “percentage damage caused to the plant, SETFA PRE” value is recorded as 5 (5=80-100%). In the test on Lolium perenne (LOLPE), the “percentage damage caused to the plant, LOLPE POST” value is given as 5 (5=80-100%) and the “percentage damage caused to the plant, LOLPE PRE” value is given as 5 (5=80-100%). In addition, in the test on Avena fatua (AVEFA), the “percentage damage caused to the plant, AVEFA POST” value is reported as 5 (5=80-100%) and the “percentage damage caused to the plant, AVEFA PRE” value is 3 (3=40-59%). In test [2], the “percentage damage caused to the plant, ALOMY POST” value is listed as 4 (4=60-79%) and the “percentage damage caused to the plant, ALOMY PRE” value was 3 (3=40-59%).

The values are drawn from patent publication US12319640B2, “Cyclic diones as herbicidal compounds” (SYNGENTA CROP PROTECTION AG, priority 2019, dated 2025).
